Laboratory results as given in patent US8017612B2, “Piperazine compound and use thereof as a HCV polymerase inhibitor” (priority 2006, dated 2011).

Columns and labels:
[1] = target: T1, HCV polymerase (NS5B) type 1a (Hepatitis C virus genotype 1a, UniProt P26664); assay: Assay of enzyme (HCV polymerase) inhibitory activity, type 1a enzyme; type: biochemical, HCV type 1a (cloned from the blood of patients)
T1 construct: made in house; host or cells: Escherichia coli (by the 'similar method' of the 1b enzyme)
In short: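 IC50 values derive from radioactivity of newly synthesized RNA with versus without test compound. The enzyme was C-terminally truncated type 1a NS5B, 1.5 μg/ml, run 60 min at 25° C with 3H-UTP-labelled nucleotides.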

[2] = target: T2, HCV polymerase (NS5B) type 1b (Hepatitis C virus genotype 1b, UniProt P26663); assay: Assay of enzyme (HCV polymerase) inhibitory activity, type 1b enzyme; type: biochemical, HCV BK strain (type 1b)
T2 construct: a region encoding NS5B (J Virol 1991 March, 65(3), 1105-13, 544 amino acids after deletion of 47 amino acids on the C-terminal); 6xHis (C); made in house; host or cells: Escherichia coli
In short: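 Polymerase activity was followed as radiolabelled UTP incorporation by E. coli-expressed, His-tagged NS5B of HCV type 1b lacking its last 47 residues. Conditions: 2 μM UTP, 50 μM other NTPs, Mg2+ buffer at pH 7.5, 25 °C for 60 min. Inhibition relative to compound-free reactions gave IC50.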

[3] = HCV polymerase inhibitory activity IC50, 1a, type 1a enzyme
[4] = HCV polymerase inhibitory activity IC50, 1b, type 1b enzyme
[5] = HCV polymerase inhibitory activity (IC50), 1a, type 1a enzyme 1.5 μg/ml, 25° C., 60 min
[6] = HCV polymerase inhibitory activity (IC50), 1b, type 1b enzyme 0.5 μg/ml, 25° C., 60 min

SMILES | IC50 [1, 3] [nM] | IC50 [2, 4] [nM] | IC50 [1, 5] [nM] | IC50 [2, 6] [nM]
NC(=O)CCc1cncc2ncc(N3CCN(S(=O)(=O)c4ccc(OC(F)(F)F)cc4)[C@@H](C(=O)NCc4ccc(OC(F)(F)F)cc4)C3)nc12 [Example 810, (R)-4-[8-(2-carbamoyl-ethyl)-pyrido[3,4-b]pyrazin-2-yl]-1-(4-trifluoromethoxy-benzenesulfonyl)-piperazine-2-carboxylic acid 4-trifluoromethoxy-benzylamide] | < 100 | < 100 |  | 
CC(C)c1ccc(CNC(=O)[C@H]2CN(c3nc(N)n[nH]3)CCN2S(=O)(=O)c2ccc(C(F)(F)F)cc2)cc1 [Example 368, (R)-4-(5-amino-2H-[1,2,4]triazol-3-yl)-1-(4-trifluoromethyl-benzenesulfonyl)-piperazine-2-carboxylic acid 4-isopropyl-benzylamide] |  |  | > 1000 | 100 to 1000
CNC(=O)c1ncc2sc(N3CCN(S(=O)(=O)c4ccc(OC(F)(F)F)cc4)[C@@H](C(=O)NCc4ccc(OC(F)(F)F)cc4)C3)nc2n1 [Example 1046, 2-[(R)-4-(4-trifluoromethoxy-benzenesulfonyl)-3-(4-trifluoromethoxy-benzylcarbamoyl)-piperazin-1-yl]-thiazolo[4,5-d]pyrimidine-5-carboxylic acid methylamide] | < 100 | < 100 |  | 
CC(C)c1ccc(CNC(=O)[C@H]2CN(C(=O)CC#N)CCN2S(=O)(=O)c2ccc(C(F)(F)F)cc2)cc1 [Example 258, (R)-4-(2-cyano-acetyl)-1-(4-trifluoromethyl-benzenesulfonyl)-piperazine-2-carboxylic acid 4-isopropyl-benzylamide] |  |  | < 100 | < 100
CCNC(=O)c1cnc(N2CCN(S(=O)(=O)c3ccc(OC(F)(F)F)cc3)[C@@H](C(=O)NCc3ccc(OC(F)(F)F)cc3)C2)cn1 [Example 852, (R)-4-(4-trifluoromethoxy-benzenesulfonyl)-3,4,5,6-tetrahydro-2H-[1,2′]bipyrazinyl-3,5′-dicarboxylic acid 5′-ethylamide 3-(4-trifluoromethoxy-benzylamide)] | < 100 | < 100 |  | 
CCC(F)(F)c1ccc(CNC(=O)[C@H]2CN(c3cnc4ccccc4n3)CCN2S(=O)(=O)c2ccc(OC(F)(F)F)cc2)cc1 [Example 632, (R)-4-quinoxalin-2-yl-1-(4-trifluoromethoxy-benzenesulfonyl)-piperazine-2-carboxylic acid 4-(1,1-difluoro-propyl)-benzylamide] |  |  | < 100 | < 100
CCC(F)(F)c1ccc(CNC(=O)[C@H]2CN(C(=O)Nc3nnc(C(C)(C)O)s3)CCN2S(=O)(=O)c2ccc(OC(F)(F)F)cc2)cc1 [Example 484, (R)-4-(4-trifluoromethoxy-benzenesulfonyl)-piperazine-1,3-dicarboxylic acid 3-[4-(1,1-difluoro-propyl)-benzylamide] 1-{[5-(1-hydroxy-1-methyl-ethyl)-[1,3,4]thiadiazol-2-yl]-amide}] |  |  | 100 to 1000 | < 100
CC(C)c1ccc(CNC(=O)[C@H]2CN(CC(N)=O)CCN2S(=O)(=O)c2ccc(C(F)(F)F)cc2)cc1 [Example 146, (R)-4-carbamoylmethyl-1-(4-trifluoromethyl-benzenesulfonyl)-piperazine-2-carboxylic acid 4-isopropyl-benzylamide] |  |  | > 1000 | 100 to 1000
O=C(NCc1ccc(OC(F)(F)F)cc1)[C@H]1CN(c2nc3nccnc3s2)CCN1S(=O)(=O)c1ccc(OC(F)(F)F)cc1 [Example 794, (R)-4-thiazolo[4,5-b]pyrazin-2-yl-1-(4-trifluoromethoxy-benzenesulfonyl)-piperazine-2-carboxylic acid 4-trifluoromethoxy-benzylamide] | < 100 | < 100 |  | 
O=C(NCc1ccc(OC(F)(F)F)cc1)[C@H]1CN(c2nn3c(C(F)(F)F)cc(=O)nc3s2)CCN1S(=O)(=O)c1ccc(C(F)(F)F)cc1 [Example 1067, (R)-4-(7-oxo-5-trifluoromethyl-7H-[1,3,4]thiadiazolo[3,2-a]pyrimidin-2-yl)-1-(4-trifluoromethyl-benzenesulfonyl)-piperazine-2-carboxylic acid 4-trifluoromethoxy-benzylamide] | < 100 | < 100 |  | 
COc1ccc(CC(=O)N2CCN(S(=O)(=O)c3ccc(C(F)(F)F)cc3)[C@@H](C(=O)NCc3ccc(C(C)C)cc3)C2)cc1 [Example 266, (R)-4-[2-(4-methoxy-phenyl)-acetyl]-1-(4-trifluoromethyl-benzenesulfonyl)-piperazine-2-carboxylic acid 4-isopropyl-benzylamide] |  |  | 100 to 1000 | 100 to 1000
O=C(NCc1ccc(OC(F)F)c(F)c1)[C@H]1CN(c2nc3nc(C4CC4)ncc3s2)CCN1S(=O)(=O)c1ccc(C(F)(F)F)cc1 [Example 1074, (R)-4-(5-cyclopropyl-thiazolo[4,5-d]pyrimidin-2-yl)-1-(4-trifluoromethyl-benzenesulfonyl)-piperazine-2-carboxylic acid 4-difluoromethoxy-3-fluoro-benzylamide] | < 100 | < 100 |  | 
CCCc1ccc(CNC(=O)[C@H]2CN(c3cnc4cccc(C(=O)O)c4n3)CCN2S(=O)(=O)c2ccc(CC)cc2)cc1 [Example 816, 3-[(R)-4-(4-ethyl-benzenesulfonyl)-3-(4-propyl-benzylcarbamoyl)-piperazin-1-yl]-quinoxaline-5-carboxylic acid] | < 100 | < 100 |  | 
CC(C)c1ccc(CNC(=O)[C@H]2CN(C(=O)c3ccncc3)CCN2S(=O)(=O)c2ccc(C(F)(F)F)cc2)cc1 [Example 201, (R)-4-(pyridine-4-carbonyl)-1-(4-trifluoromethyl-benzenesulfonyl)-piperazine-2-carboxylic acid 4-isopropyl-benzylamide] |  |  | > 1000 | > 1000
O=C(NCc1ccc(OC(F)(F)F)cc1)[C@H]1CN(c2nc3nc(Cl)ncc3s2)CCN1S(=O)(=O)c1ccc(C(F)(F)F)cc1 [Example 887, (R)-4-(5-chloro-thiazolo[4,5-d]pyrimidin-2-yl)-1-(4-trifluoromethyl-benzenesulfonyl)-piperazine-2-carboxylic acid 4-trifluoromethoxy-benzylamide] | < 100 | < 100 |  | 
CCCc1ccc(CNC(=O)[C@H]2CN(c3nc(C)c(C(=O)NS(C)(=O)=O)s3)CCN2S(=O)(=O)c2ccc(OC(F)(F)F)cc2)cc1 [Example 447, (R)-4-(5-methanesulfonylaminocarbonyl-4-methyl-thiazol-2-yl)-1-(4-trifluoromethoxy-benzenesulfonyl)-piperazine-2-carboxylic acid 4-propyl-benzylamide] |  |  | 100 to 1000 | < 100
CN(C)c1ccc(CNC(=O)C2CN(C(=O)CNCc3ccccc3)CCN2S(=O)(=O)c2ccc(I)cc2)cc1 (stereo not drawn) [Example 105, 4-(2-benzylamino-acetyl)-1-(4-iodo-benzenesulfonyl)-piperazine-2-carboxylic acid 4-dimethylamino-benzylamide] |  |  | > 1000 | > 1000
CCCc1ccc(CNC(=O)[C@H]2CN(c3nc(C)c(CN(C)C)s3)CCN2S(=O)(=O)c2ccc(OC(F)(F)F)cc2)cc1 [Example 505, (R)-4-(5-dimethylaminomethyl-4-methyl-thiazol-2-yl)-1-(4-trifluoromethoxy-benzenesulfonyl)-piperazine-2-carboxylic acid 4-propyl-benzylamide] |  |  | < 100 | < 100
